Experimental data from patent publication US10485235B2, “Aryloxypyrimidinyl ethers as herbicides” (FMC Corporation, priority 2015, dated 2019).

system: blackgrass (Alopecurus myosuroides); assay: Test A postemergence, blackgrass; assay type: in vivo; conditions: Alopecurus myosuroides, post-emergence, 240 h; 31 g ai/ha, postemergence; 0 to 100 scale, 0 is no effect, 100 is complete control; approximately 10 days; read-out: Plant response rating, Blackgrass
Method in brief: (§1)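 Pre- and postemergence greenhouse screen in loam–sand soil. Test chemicals were delivered in a non-phytotoxic solvent with surfactant, preemergence as a directed spray onto seeded soil and postemergence onto 2–10 cm seedlings. Injury was judged by eye after ~10 days on a 0–100 scale.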

Structure (SMILES) | pest or weed control at 31 g/ha [%]
N#Cc1cccc(Oc2ncc(Cl)cn2)c1OCCCC(F)(F)F [Compound 5, 3-[(5-chloro-2-pyrimidinyl)oxy]-2-(4,4,4-trifluorobutoxy)benzonitrile] | 30

same assay, conditions: Alopecurus myosuroides, post-emergence, 240 h; 125 g ai/ha, postemergence; 0 to 100 scale, 0 is no effect, 100 is complete control; approximately 10 days; read-out: Plant response rating, Blackgrass

Structure (SMILES) | pest or weed control at 125 g/ha [%]
N#Cc1cccc(Oc2ncc(Cl)cn2)c1OCCCC(F)(F)F [Compound 5, 3-[(5-chloro-2-pyrimidinyl)oxy]-2-(4,4,4-trifluorobutoxy)benzonitrile] | 90

system: foxtail, giant (giant foxtail, Setaria faberii); assay: Test A preemergence, giant foxtail; assay type: in vivo; conditions: Setaria faberi, pre-emergence, 240 h; Preemergence, 31 g ai/ha; 0 to 100 scale (0 no effect, 100 complete control); read-out: Plant response rating, Foxtail, Giant
Method in brief: as §1

Structure (SMILES) | pest or weed control at 31 g/ha [%]
N#Cc1cccc(Oc2ncc(Cl)cn2)c1OCCCC(F)(F)F [Compound 5, 3-[(5-chloro-2-pyrimidinyl)oxy]-2-(4,4,4-trifluorobutoxy)benzonitrile] | 100

same assay, conditions: Setaria faberi, pre-emergence, 240 h; Preemergence, 125 g ai/ha; 0 to 100 scale (0 no effect, 100 complete control); read-out: Plant response rating, Foxtail, Giant

Structure (SMILES) | pest or weed control at 125 g/ha [%]
N#Cc1cccc(Oc2ncc(Cl)cn2)c1OCCCC(F)(F)F [Compound 5, 3-[(5-chloro-2-pyrimidinyl)oxy]-2-(4,4,4-trifluorobutoxy)benzonitrile] | 100

system: kochia (Kochia scoparia); assay: Test A preemergence, kochia; assay type: in vivo; conditions: Bassia scoparia, pre-emergence, 240 h; Preemergence, 31 g ai/ha; 0 to 100 scale (0 no effect, 100 complete control); read-out: Plant response rating, Kochia
Method in brief: as §1

Structure (SMILES) | pest or weed control at 31 g/ha [%]
N#Cc1cccc(Oc2ncc(Cl)cn2)c1OCCCC(F)(F)F [Compound 5, 3-[(5-chloro-2-pyrimidinyl)oxy]-2-(4,4,4-trifluorobutoxy)benzonitrile] | 90

same assay, conditions: Bassia scoparia, pre-emergence, 240 h; Preemergence, 125 g ai/ha; 0 to 100 scale (0 no effect, 100 complete control); read-out: Plant response rating, Kochia

Structure (SMILES) | pest or weed control at 125 g/ha [%]
N#Cc1cccc(Oc2ncc(Cl)cn2)c1OCCCC(F)(F)F [Compound 5, 3-[(5-chloro-2-pyrimidinyl)oxy]-2-(4,4,4-trifluorobutoxy)benzonitrile] | 100

system: wheat (Triticum aestivum); assay: Test A postemergence, wheat; assay type: in vivo; conditions: Triticum aestivum, post-emergence, 240 h; 31 g ai/ha, postemergence; 0 to 100 scale, 0 is no effect, 100 is complete control; approximately 10 days; read-out: Plant response rating, Wheat
Method in brief: as §1

Structure (SMILES) | plant injury at 31 g/ha [%]
N#Cc1cccc(Oc2ncc(Cl)cn2)c1OCCCC(F)(F)F [Compound 5, 3-[(5-chloro-2-pyrimidinyl)oxy]-2-(4,4,4-trifluorobutoxy)benzonitrile] | 20

same assay, conditions: Triticum aestivum, post-emergence, 240 h; 125 g ai/ha, postemergence; 0 to 100 scale, 0 is no effect, 100 is complete control; approximately 10 days; read-out: Plant response rating, Wheat

Structure (SMILES) | plant injury at 125 g/ha [%]
N#Cc1cccc(Oc2ncc(Cl)cn2)c1OCCCC(F)(F)F [Compound 5, 3-[(5-chloro-2-pyrimidinyl)oxy]-2-(4,4,4-trifluorobutoxy)benzonitrile] | 40

system: ragweed (common ragweed, Ambrosia elatior); assay: Test A preemergence, ragweed; assay type: in vivo; conditions: Ambrosia artemisiifolia, pre-emergence, 240 h; Preemergence, 31 g ai/ha; 0 to 100 scale (0 no effect, 100 complete control); read-out: Plant response rating, Ragweed
Method in brief: as §1

Structure (SMILES) | pest or weed control at 31 g/ha [%]
N#Cc1cccc(Oc2ncc(Cl)cn2)c1OCCCC(F)(F)F [Compound 5, 3-[(5-chloro-2-pyrimidinyl)oxy]-2-(4,4,4-trifluorobutoxy)benzonitrile] | 10

same assay, conditions: Ambrosia artemisiifolia, pre-emergence, 240 h; Preemergence, 125 g ai/ha; 0 to 100 scale (0 no effect, 100 complete control); read-out: Plant response rating, Ragweed

Structure (SMILES) | pest or weed control at 125 g/ha [%]
N#Cc1cccc(Oc2ncc(Cl)cn2)c1OCCCC(F)(F)F [Compound 5, 3-[(5-chloro-2-pyrimidinyl)oxy]-2-(4,4,4-trifluorobutoxy)benzonitrile] | 10

system: pigweed (Amaranthus retroflexus); assay: Test A preemergence, pigweed; assay type: in vivo; conditions: Amaranthus retroflexus, pre-emergence, 240 h; Preemergence, 31 g ai/ha; 0 to 100 scale (0 no effect, 100 complete control); read-out: Plant response rating, Pigweed
Method in brief: as §1

Structure (SMILES) | pest or weed control at 31 g/ha [%]
N#Cc1cccc(Oc2ncc(Cl)cn2)c1OCCCC(F)(F)F [Compound 5, 3-[(5-chloro-2-pyrimidinyl)oxy]-2-(4,4,4-trifluorobutoxy)benzonitrile] | 90

same assay, conditions: Amaranthus retroflexus, pre-emergence, 240 h; Preemergence, 125 g ai/ha; 0 to 100 scale (0 no effect, 100 complete control); read-out: Plant response rating, Pigweed

Structure (SMILES) | pest or weed control at 125 g/ha [%]
N#Cc1cccc(Oc2ncc(Cl)cn2)c1OCCCC(F)(F)F [Compound 5, 3-[(5-chloro-2-pyrimidinyl)oxy]-2-(4,4,4-trifluorobutoxy)benzonitrile] | 90

system: ducksalad (Heteranthera limosa); assay: Test B flooded paddy test, ducksalad; assay type: in vivo; conditions: Heteranthera limosa; 250 g ai/ha, Flood; visual rating after 13 to 15 days; scale 0 to 100, 0 is no effect, 100 is complete control; read-out: Plant response rating, Ducksalad
Method in brief: (§2)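 Visual ratings, 0 = no effect to 100 = complete control, versus controls after 13 to 15 days in greenhouse. Test compounds were added to paddy water kept 3 cm over the soil surface, on plants at 2-leaf stage.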

Structure (SMILES) | pest or weed control at 250 g/ha [%]
N#Cc1cccc(Oc2ncc(Cl)cn2)c1OCCCC(F)(F)F [Compound 5, 3-[(5-chloro-2-pyrimidinyl)oxy]-2-(4,4,4-trifluorobutoxy)benzonitrile] | 90

system: ryegrass, Italian (Italian ryegrass, Lolium multiflorum); assay: Test A preemergence, Italian ryegrass; assay type: in vivo; conditions: Lolium multiflorum, pre-emergence, 240 h; Preemergence, 31 g ai/ha; 0 to 100 scale (0 no effect, 100 complete control); read-out: Plant response rating, Ryegrass, Italian
Method in brief: as §1

Structure (SMILES) | pest or weed control at 31 g/ha [%]
N#Cc1cccc(Oc2ncc(Cl)cn2)c1OCCCC(F)(F)F [Compound 5, 3-[(5-chloro-2-pyrimidinyl)oxy]-2-(4,4,4-trifluorobutoxy)benzonitrile] | 20

same assay, conditions: Lolium multiflorum, pre-emergence, 240 h; Preemergence, 125 g ai/ha; 0 to 100 scale (0 no effect, 100 complete control); read-out: Plant response rating, Ryegrass, Italian

Structure (SMILES) | pest or weed control at 125 g/ha [%]
N#Cc1cccc(Oc2ncc(Cl)cn2)c1OCCCC(F)(F)F [Compound 5, 3-[(5-chloro-2-pyrimidinyl)oxy]-2-(4,4,4-trifluorobutoxy)benzonitrile] | 60

system: corn (Zea mays); assay: Test A postemergence, corn; assay type: in vivo; conditions: Zea mays, post-emergence, 240 h; 31 g ai/ha, postemergence; 0 to 100 scale, 0 is no effect, 100 is complete control; approximately 10 days
Method in brief: as §1

Structure (SMILES) | Corn plant response rating (crop injury, 0 = no effect, 100 = complete kill) at 31 g/ha [%]
N#Cc1cccc(Oc2ncc(Cl)cn2)c1OCCCC(F)(F)F [Compound 5, 3-[(5-chloro-2-pyrimidinyl)oxy]-2-(4,4,4-trifluorobutoxy)benzonitrile] | 50

same assay, conditions: Zea mays, post-emergence, 240 h; 125 g ai/ha, postemergence; 0 to 100 scale, 0 is no effect, 100 is complete control; approximately 10 days

Structure (SMILES) | Corn plant response rating (crop injury, 0 = no effect, 100 = complete kill) at 125 g/ha [%]
N#Cc1cccc(Oc2ncc(Cl)cn2)c1OCCCC(F)(F)F [Compound 5, 3-[(5-chloro-2-pyrimidinyl)oxy]-2-(4,4,4-trifluorobutoxy)benzonitrile] | 80

system: rice (Oryza sativa); assay: Test B flooded paddy test, rice; assay type: in vivo; conditions: Oryza sativa; 250 g ai/ha, Flood; visual rating after 13 to 15 days; scale 0 to 100, 0 is no effect, 100 is complete control; read-out: Plant response rating, Rice
Method in brief: as §2

Structure (SMILES) | plant injury at 250 g/ha [%]
N#Cc1cccc(Oc2ncc(Cl)cn2)c1OCCCC(F)(F)F [Compound 5, 3-[(5-chloro-2-pyrimidinyl)oxy]-2-(4,4,4-trifluorobutoxy)benzonitrile] | 40

system: pigweed (Amaranthus retroflexus); assay: Test A postemergence, pigweed; assay type: in vivo; conditions: Amaranthus retroflexus, post-emergence, 240 h; 31 g ai/ha, postemergence; 0 to 100 scale, 0 is no effect, 100 is complete control; approximately 10 days; read-out: Plant response rating, Pigweed
Method in brief: as §1

Structure (SMILES) | pest or weed control at 31 g/ha [%]
N#Cc1cccc(Oc2ncc(Cl)cn2)c1OCCCC(F)(F)F [Compound 5, 3-[(5-chloro-2-pyrimidinyl)oxy]-2-(4,4,4-trifluorobutoxy)benzonitrile] | 100

same assay, conditions: Amaranthus retroflexus, post-emergence, 240 h; 125 g ai/ha, postemergence; 0 to 100 scale, 0 is no effect, 100 is complete control; approximately 10 days; read-out: Plant response rating, Pigweed

Structure (SMILES) | pest or weed control at 125 g/ha [%]
N#Cc1cccc(Oc2ncc(Cl)cn2)c1OCCCC(F)(F)F [Compound 5, 3-[(5-chloro-2-pyrimidinyl)oxy]-2-(4,4,4-trifluorobutoxy)benzonitrile] | 100

system: sedge, umbrella (small-flower umbrella sedge, Cyperus difformis); assay: Test B flooded paddy test, umbrella sedge; assay type: in vivo; conditions: Cyperus difformis; 250 g ai/ha, Flood; visual rating after 13 to 15 days; scale 0 to 100, 0 is no effect, 100 is complete control; read-out: Plant response rating, Sedge, Umbrella
Method in brief: as §2

Structure (SMILES) | pest or weed control at 250 g/ha [%]
N#Cc1cccc(Oc2ncc(Cl)cn2)c1OCCCC(F)(F)F [Compound 5, 3-[(5-chloro-2-pyrimidinyl)oxy]-2-(4,4,4-trifluorobutoxy)benzonitrile] | 95

system: barnyardgrass (Echinochloa crus-galli); assay: Test B flooded paddy test, barnyardgrass; assay type: in vivo; conditions: Echinochloa crus-galli; 250 g ai/ha, Flood; visual rating after 13 to 15 days; scale 0 to 100, 0 is no effect, 100 is complete control; read-out: Plant response rating, Barnyardgrass
Method in brief: as §2

Structure (SMILES) | pest or weed control at 250 g/ha [%]
N#Cc1cccc(Oc2ncc(Cl)cn2)c1OCCCC(F)(F)F [Compound 5, 3-[(5-chloro-2-pyrimidinyl)oxy]-2-(4,4,4-trifluorobutoxy)benzonitrile] | 50

system: barnyardgrass (Echinochloa crus-galli); assay: Test A preemergence, barnyardgrass; assay type: in vivo; conditions: Echinochloa crus-galli, pre-emergence, 240 h; Preemergence, 31 g ai/ha; 0 to 100 scale (0 no effect, 100 complete control); read-out: Plant response rating, Barnyardgrass
Method in brief: as §1

Structure (SMILES) | pest or weed control at 31 g/ha [%]
N#Cc1cccc(Oc2ncc(Cl)cn2)c1OCCCC(F)(F)F [Compound 5, 3-[(5-chloro-2-pyrimidinyl)oxy]-2-(4,4,4-trifluorobutoxy)benzonitrile] | 80

same assay, conditions: Echinochloa crus-galli, pre-emergence, 240 h; Preemergence, 125 g ai/ha; 0 to 100 scale (0 no effect, 100 complete control); read-out: Plant response rating, Barnyardgrass

Structure (SMILES) | pest or weed control at 125 g/ha [%]
N#Cc1cccc(Oc2ncc(Cl)cn2)c1OCCCC(F)(F)F [Compound 5, 3-[(5-chloro-2-pyrimidinyl)oxy]-2-(4,4,4-trifluorobutoxy)benzonitrile] | 100

system: ragweed (common ragweed, Ambrosia elatior); assay: Test A postemergence, ragweed; assay type: in vivo; conditions: Ambrosia artemisiifolia, post-emergence, 240 h; 31 g ai/ha, postemergence; 0 to 100 scale, 0 is no effect, 100 is complete control; approximately 10 days; read-out: Plant response rating, Ragweed
Method in brief: as §1

Structure (SMILES) | pest or weed control at 31 g/ha [%]
N#Cc1cccc(Oc2ncc(Cl)cn2)c1OCCCC(F)(F)F [Compound 5, 3-[(5-chloro-2-pyrimidinyl)oxy]-2-(4,4,4-trifluorobutoxy)benzonitrile] | 10

same assay, conditions: Ambrosia artemisiifolia, post-emergence, 240 h; 125 g ai/ha, postemergence; 0 to 100 scale, 0 is no effect, 100 is complete control; approximately 10 days; read-out: Plant response rating, Ragweed

Structure (SMILES) | pest or weed control at 125 g/ha [%]
N#Cc1cccc(Oc2ncc(Cl)cn2)c1OCCCC(F)(F)F [Compound 5, 3-[(5-chloro-2-pyrimidinyl)oxy]-2-(4,4,4-trifluorobutoxy)benzonitrile] | 30
